In US20240166624A1, “PPARG INVERSE AGONISTS AND USES THEREOF” (Flare Therapeutics Inc., priority 2021, published 2024) one finds inhibition and EC50 data, which are given here for 11 molecules.

The inhibition is the relative decrease from the control value, in per cent. A higher inhibition goes with a response far below the control. One may read the EC50 as the concentration at which the effect is half-maximal.

In assay [1] the test system is ANGPTL4, a PPARG target gene, in HT1197 (RXRA S427F mutation) cells. Put plainly: Bladder cancer pharmacodynamic assay, HT1197 cell assay (qPCR of ANGPTL4). It is filed as cell-based. The note with it: Homo sapiens, 24 hours, 100 nM compound, relative to DMSO control. The method, then:
Bladder Cancer Pharmacodynamic Assay
5637 (PPARG amplified) and HT1197 (RXRA S427F mutation) cells were used for assessment of modulation of PPARG target genes using quantitative PCR. Cells were treated for 24 hours with PPARG inverse agonists prior to analysis of FABP4 (IDT, Cat: Hs.PT 58.20106818) and ANGPTL4 (IDT, Cat: Hs.PT 58.25480012) expression, with expression of the housekeeping gene TBP (IDT, Cat: Hs.PT 58v.39858774) used to normalize expression across samples. Quantitative PCR was performed using an ABI QuantStudio 7 Flex Reaction system. Data were analyzed and reported relative to DMSO control using the comparative Ct method (ΔΔCt).
Background: Real-time PCR tracks product formation cycle by cycle.

Assay [2] has as its target T1, PPARG/RXRA LBD heterodimer (Homo sapiens, UniProt P37231).
T1 construct: His-TEV-Q203-Y477; Uniprot ID P37231-2; made in house; host or cells: E. coli
T1 sequence (P37231 203-477 isoform P37231-2): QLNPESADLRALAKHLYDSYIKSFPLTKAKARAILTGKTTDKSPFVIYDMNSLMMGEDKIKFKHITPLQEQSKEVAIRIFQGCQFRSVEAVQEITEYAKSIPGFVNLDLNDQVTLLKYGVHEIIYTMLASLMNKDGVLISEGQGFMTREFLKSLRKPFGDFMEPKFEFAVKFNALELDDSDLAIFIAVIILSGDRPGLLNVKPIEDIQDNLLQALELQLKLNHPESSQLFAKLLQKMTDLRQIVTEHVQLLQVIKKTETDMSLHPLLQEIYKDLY
T1 sequence (P19793 228-462 partner limits assumed): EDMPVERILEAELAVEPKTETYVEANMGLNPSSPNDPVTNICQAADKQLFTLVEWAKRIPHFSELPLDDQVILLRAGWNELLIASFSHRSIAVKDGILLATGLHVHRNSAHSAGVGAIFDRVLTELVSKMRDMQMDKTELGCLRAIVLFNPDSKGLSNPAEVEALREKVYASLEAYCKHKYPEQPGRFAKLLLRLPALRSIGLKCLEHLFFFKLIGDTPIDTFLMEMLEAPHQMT
The assay is described as follows: PPARγ-MED1 blockade assay (TR-FRET, biotinylated MED1 LxxLL peptide). It is filed as biochemical. The note with it: WT PPARG LBD/WT RXRA LBD, 80 nM Rosiglitazone, 3 hours. The method, then:
PPARγ-MED1 Blockade Assay:
Compound potency (IC50) and maximal extent of MED1 repulsion to PPARG were assessed a TR-FRET binding assay measuring association of a biotinylated MED1 LxxLL peptide (Biotin-[…]-amide) to PPARG/RXRA LBD heterodimer. Specifically, a 20 microliters of TR-FRET master mix consisting of 2 nM WT PPARG LBD (E. coli expressed, His-TEV-Q203-Y477; Uniprot ID P37231-2), 2 nM WT RXRA LBD (E. coli expressed, Flag-TEV-E228-T462; […]. Mixtures were incubated for 3 hours and read in an EnVision plate reader (Perkin Elmer) with Ex/Em 615/665. To determine the potency (IC50) and extent of MED1 repulsion, TR-FRET ratios were normalized to the average ratio of DMSO control wells (0%) and to the average minimum ratio for positive control compound (GW9662 (2-chloro-5-nitrobenzanilide); defined as 100%) in CDD Vault and analyzed using the Levenberg-Marquardt algorithm.
In general terms: TR-FRET usually uses a lanthanide donor and a delayed reading to cut background.

The target of assay [3] is T2, PPARG/RXRA LBD heterodimer (Homo sapiens, UniProt P37231).
T2 construct: His-TEV-Q203-Y477; Uniprot ID P37231-2; made in house; host or cells: E. coli
The assay is described as follows: PPARγ-NCOR1 recruitment assay (TR-FRET, biotinylated NCOR1 ID2 peptide). The format is biochemical. The note with it: 80 nM Rosiglitazone, 3 hours, read-out: PPARG-NCOR recruitment assay EC50. The method, then:
PPARγ-NCOR1 Recruitment Assay:
Compound potency (EC50) and maximal extent of NCOR1 recruitment to PPARG were assessed a TR-FRET binding assay measuring association of a biotinylated NCOR1 ID2 peptide (Biotin-[…]-amide) to PPARG/RXRA LBD heterodimer. Specifically, a 20 microliters of TR-FRET master mix consisting of 2 nM WT PPARG LBD (E. coli expressed, His-TEV-Q203-Y477; Uniprot ID P37231-2), 2 nM WT RXRA LBD or mutant S427F RXRA LBD (E. coli expressed, Flag-TEV-E228-T462; […]. Mixtures were incubated for 3 hours and read in an EnVision plate reader (Perkin Elmer) with Ex/Em 615/665. To determine the potency (EC50) and extent of NCOR1 recruitment, TR-FRET ratios were normalized to the average ratio of DMSO control wells (0%) and to the average maximum ratio for positive control compound (T0070907 (2-chloro-5-nitro-N-4-pyridinyl-benzamide); defined as 100%) in CDD Vault and analyzed using the Levenberg-Marquardt algorithm.
T2 sequence (O75376 2251-2273 partner, one chain of several): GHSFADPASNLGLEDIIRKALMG

`COCc1c(F)cc2[nH]c(-c3cc(C#N)ccc3Cl)cc(=O)c2c1F` [Example 57, 4-chloro-3-(5,7-difluoro-6-(methoxymethyl)-4-oxo-1,4-dihydroquinolin-2-yl)benzonitrile]: at 0.1 µM the inhibition in assay [1] was 87%. Further, the EC50 in assay [2] and in assay [3] was 100 to 1000 nM throughout.

In turn, `Cc1c(F)cc(F)c2c(=O)cc(-c3cc(C#N)ccc3Cl)[nH]c12` [Example 28, 4-chloro-3-(5,7-difluoro-8-methyl-4-oxo-1,4-dihydroquinolin-2-yl)benzonitrile] registered an inhibition at 0.1 µM in assay [1] of 0%. For the same molecule, the EC50 in assay [2] is 100 to 1000 nM; in assay [3], greater than 10000 nM.

Molecule `N#Cc1ccc(Cl)c(-c2cc(=O)c3c(F)c(C(O)CO)c(F)cc3[nH]2)c1` (stereo not drawn) [Example 90, 4-chloro-3-(6-(1,2-dihydroxyethyl)-5,7-difluoro-4-oxo-1,4-dihdroquinolin-2-yl)benzonitrile] yielded an inhibition at 0.1 µM in assay [1] of 0%. Further, the EC50 was greater than 10000 nM in assay [2] and 1000 to 10000 nM in assay [3].

As for `N#Cc1ccc(Cl)c(-c2cc(=O)c3c(F)c(-c4c[nH]c(C(F)(F)F)n4)c(F)cc3[nH]2)c1` [Example 67, 4-chloro-3-(5,7-difluoro-4-oxo-6-(2-(trifluoromethyl)-1H-imidazol-4-yl)-1,4-dihydroquinolin-2-yl)benzonitrile], the inhibition at 0.1 µM in assay [1] came out at 22%. Further, the EC50 in assay [2] and in assay [3] was 10 to 100 nM each time.

As to `Cc1cc(-c2c(F)cc3[nH]c(-c4cc(C#N)ccc4Cl)cc(=O)c3c2F)cc(C)n1` [Example 43, 4-chloro-3-(6-(2,6-dimethylpyridin-4-yl)-5,7-difluoro-4-oxo-1,4-dihydroquinolin-2-yl)benzonitrile], the inhibition at 0.1 µM in assay [1] amounted to 75%. Moreover, the EC50 in assay [2] and in assay [3] was 100 to 1000 nM each time.

For the molecule `N#Cc1ccc(Cl)c(-c2cc(=O)c3c(Cl)cc(F)cc3[nH]2)c1` [Example 18, 4-chloro-3-(5-chloro-7-fluoro-4-oxo-1,4-dihydroquinolin-2-yl)benzonitrile], the inhibition at 0.1 µM in assay [1] was determined as 83%. Also, the EC50 in assay [2] and in assay [3] was 100 to 1000 nM in each case.

Turning to `N#Cc1ccc(Cl)c(-c2cc(=O)c3c(F)c(-c4ccc5c(c4)C(=O)NC5)c(F)cc3[nH]2)c1` [Example 59, 4-chloro-3-(5,7-difluoro-4-oxo-6-(3-oxoisoindolin-5-yl)-1,4-dihydroquinolin-2-yl)benzonitrile], the inhibition at 0.1 µM in assay [1] stood at 42%. The concentration giving a half-maximal response (EC50) in assay [2] and in assay [3] was 10 to 100 nM in each case.

With `CN(C)C1CN(c2c(F)cc3[nH]c(-c4cc(C#N)ccc4Cl)cc(=O)c3c2F)C1` [Example 100, 4-chloro-3-(6-(3-(dimethylamino)azetidin-1-yl)-5,7-difluoro-4-oxo-1,4-dihydroquinolin-2-yl)benzonitrile], the inhibition at 0.1 µM in assay [1] was 87%. Further, the EC50 in assay [2] and in assay [3] was 1000 to 10000 nM throughout.

With `N#Cc1ccc(-c2c(F)cc3[nH]c(-c4cc(C#N)ccc4Cl)cc(=O)c3c2F)cc1` [Example 35, 4-chloro-3-(6-(4-cyanophenyl)-5,7-difluoro-4-oxo-1,4-dihydroquinolin-2-yl)benzonitrile], the inhibition at 0.1 µM in assay [1] was found to be 54%. The EC50 in assay [2] and in assay [3] was 100 to 1000 nM each time.

For `CN(C)C(=O)[C@@H]1CCN(c2c(F)cc3[nH]c(-c4cc(C#N)ccc4Cl)cc(=O)c3c2F)C1` [Example 116, (R)-1-(2-(2-chloro-5-cyanophenyl)-5,7-difluoro-4-oxo-1,4-dihydroquinolin-6-yl)-N,N-dimethylpyrrolidine-3-carboxamide], 0.1 µM produced 84% inhibition in assay [1]. The EC50 in assay [2] is 1000 to 10000 nM; in assay [3], 100 to 1000 nM.

On to `CN(C)CCn1cc(-c2c(F)cc3[nH]c(-c4cc(C#N)ccc4Cl)cc(=O)c3c2F)cn1` [Example 52, 4-chloro-3-(6-(1-(2-(dimethylamino)ethyl)-1H-pyrazol-4-yl)-5,7-difluoro-4-oxo-1,4-dihydroquinolin-2-yl)benzonitrile], for which, in assay [1], testing at 0.1 µM gave an inhibition of 29%. Also, the EC50 in assay [2] and in assay [3] was 1000 to 10000 nM in each case.
